Reference: PMC3800186 (Biochemistry, 2013)
Entries after “also recorded” stand apart in the source; their conditions may differ.

Experiments:
mutant gp120 (S375W) = conditions: ref ([15]); cited from earlier work
[1] = test system: gp120 interaction with sCD4; conditions: read-out: IC50(SPR) sCD4, shown for comparison, ref ([19]) and ([30]); cited from earlier work
[2] = test system: mutant gp120 (I423P) binding of F105 antibody; conditions: ref ([15], [48]); cited from earlier work
[3] = test system: gp120 interaction with mAb 17b; conditions: read-out: IC50(SPR) mAb 17b, shown for comparison, ref ([19]) and ([30]); cited from earlier work
S375A gp120 = S375A gp120 (Human immunodeficiency virus type 1 group M subtype B, UniProt P35961, S370A); format: binding, HIV-1; conditions: immobilized S375A gp120, SPR
[4] = molecular target: S375A gp120 interaction with sCD4 (Human immunodeficiency virus type 1 group M subtype B, UniProt P35961, S370A); assay: SPR KR21/sCD4 competition over immobilized S375A gp120; format: binding, HIV-1; conditions: S375A versus WT

Compound	binding to gp120 with pocket-filling S375W mutation (mutant gp120 (S375W))	inhibition of sCD4 binding to mutant gp120 (S375W) (mutant gp120 (S375W))	IC50 [1] [nM]	inhibition of F105 antibody binding to mutant gp120 (I423P) [2]	IC50 [3] [nM]	direct binding to S375A gp120 (S375A gp120)	reduction in sCD4 inhibitory potency, S375A compared to WT gp120 [4] [fold]
RINNIPWSEAMM [12p1]	completely abrogated	does not inhibit; also recorded: resistant	1100	inhibits	1600	–	–
CC[C@H](C)[C@H](NC(=O)[C@@H](N)CCCNC(=N)N)C(=O)N[C@@H](CC(N)=O)C(=O)N[C@@H](CC(N)=O)C(=O)N[C@H](C(=O)N1C[C@@H](n2cc([C]34[CH]5[CH]6[CH]7[CH]3[Fe]6754389%10[CH]4[CH]3[CH]8[CH]9[CH]4%10)nn2)C[C@H]1C(=O)N[C@@H](Cc1c[nH]c2ccccc12)C(=O)NCCC(=O)N[C@@H](CCCCNC(=O)CCCC[C@@H]1SC[C@@H]2NC(=O)N[C@@H]21)C(=O)NCC(N)=O)[C@@H](C)CC (stereo partly drawn) [KR21, R^1-I^2-N^3-N^4-I^5-X^6-W^7-βA^8-BtLys^9-G^10]	–	–	85	–	110	severely disrupted; also recorded: could not be fitted	20
